Data taken from patent US8101766B2, “Crystalline form of a biphenyl compound” (Theravance, Inc., priority 2004, dated 2012).

Experiments:
[1] = target: T1, human M2 muscarinic receptor (Homo sapiens, UniProt P08172); assay: Radioligand binding assay for muscarinic receptors (hM2); conditions: [3H]-NMS displacement, CHO cell membranes
T1 construct: expressed in transfected cells
T1 sequence (P08172 1-466): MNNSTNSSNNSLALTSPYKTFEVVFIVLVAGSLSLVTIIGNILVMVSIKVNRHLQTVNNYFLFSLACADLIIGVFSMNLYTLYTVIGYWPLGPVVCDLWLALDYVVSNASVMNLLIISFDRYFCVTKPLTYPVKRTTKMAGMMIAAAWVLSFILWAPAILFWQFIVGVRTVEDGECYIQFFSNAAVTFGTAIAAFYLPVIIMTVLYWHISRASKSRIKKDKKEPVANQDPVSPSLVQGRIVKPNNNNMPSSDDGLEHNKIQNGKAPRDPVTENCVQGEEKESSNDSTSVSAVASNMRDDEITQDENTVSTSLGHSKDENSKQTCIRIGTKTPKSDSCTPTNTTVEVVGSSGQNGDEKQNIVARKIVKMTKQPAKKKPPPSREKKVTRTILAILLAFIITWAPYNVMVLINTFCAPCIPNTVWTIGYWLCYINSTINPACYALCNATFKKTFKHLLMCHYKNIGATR
Description: The cells were grown in a 5% CO2, 37° C. incubator and lifted with 2 mM EDTA in dPBS. Cells were collected by 5 minute centrifugation at 650×g, and cell pellets were either stored frozen at −80° C. or membranes were prepared immediately for use. For membrane preparation, cell pellets were resuspended in lysis buffer and homogenized with a Polytron PT-2100 tissue disrupter (Kinematica AG; 20 seconds×2 bursts). Crude membranes were centrifuged at 40,000×g for 15 minutes at 4° C. The membrane pellet was then resuspended with re-suspension buffer and homogenized again with the Polytron tissue disrupter. […] All membranes were stored frozen in aliquots at −80° C. or used immediately.
The membranes were briefly homogenized using a Polytron tissue disruptor (10 seconds) prior to assay plate addition. […] Filter plates were rinsed three times with wash buffer (10 mM HEPES) to remove unbound radioactivity. […] Binding data were analyzed by nonlinear regression analysis with the GraphPad Prism Software package (GraphPad Software, Inc., San Diego, Calif.) using the one-site competition model.

[2] = target: β2 adrenergic receptor (Homo sapiens, UniProt P07550); assay: Whole-cell cAMP Flashplate assay in CHO cell lines heterologously expressing human β2 adrenergic receptor; format: cell-based; set-up: expressed in transfected cells; conditions: CHO-K1 cells expressing cloned human β2
Description: Cells were rinsed with PBS and detached in dPBS (Dulbecco's Phosphate Buffered Saline, without CaCl2 and MgCl2) containing 2 mM EDTA or Trypsin-EDTA solution (0.05% trypsin/0.53 mM EDTA). […] Test compounds (10 mM in DMSO) were diluted into PBS containing 0.1% BSA in Beckman Biomek-2000 and tested at 11 different concentrations ranging from 100 μM to 1 pM. […] Data were analyzed by nonlinear regression analysis with the GraphPad Prism Software package (GraphPad Software, Inc., San Diego, Calif.) with the sigmoidal equation.

[3] = target: T2, hM2 receptor (Homo sapiens, UniProt P08172); assay: Blockade of oxotremorine-stimulated [35S]GTPγS binding in CHO-K1 cells expressing the hM2 receptor; format: biochemical
T2 construct: expressed in transfected cells
T2 sequence (P08172 1-466): T1 sequence (P08172 1-466)
Description: A. Blockade of Agonist-Mediated [^35S]GTPγS Binding
The functional potency of a test compound was determined by measuring the ability of the compound to block oxotremorine-stimulated [^35S]GTPγS binding in CHO-K1 cells expressing the hM2 receptor.
At the time of use, frozen membranes were thawed and then diluted in assay buffer with a final target tissue concentration of 5-10 μg protein per well. The membranes were briefly homogenized using a Polytron PT-2100 tissue disrupter and then added to the assay plates.
The assay plates were then incubated at 37° C. for 60 minutes. The assay plates were filtered over 1% BSA-pretreated GF/B filters using a PerkinElmer 96-well harvester. The plates were rinsed with ice-cold wash buffer for 3×3 seconds and then air or vacuum dried. Microscint-20 scintillation liquid (50 μL) was added to each well, and each plate was sealed and radioactivity counted on a Topcounter (PerkinElmer). Data were analyzed by nonlinear regression analysis with the GraphPad Prism Software package (GraphPad Software, Inc., San Diego, Calif.) using the non-linear regression, one-site competition equation. The Cheng-Prusoff equation was used to calculate the Ki, using the IC50 values of the concentration-response curve for the test compound and the oxotremorine concentration in the assay as the KD and [L], ligand concentration, respectively.

[4] = system: acetylcholine-induced or histamine-induced bronchoconstriction; assay: Duration of bronchoprotection in guinea pig models of acetylcholine-induced or histamine-induced bronchoconstriction (model not specified for the result); format: in vivo; conditions: inhalation
Description: Duration of Bronchoprotection in Guinea Pig Models of Acetylcholine-Induced or Histamine-Induced Bronchoconstriction
To isolate muscarinic antagonist activity in the acetylcholine-induced bronchoconstriction model, the animals were administered propanolol, a compound that blocks β receptor activity, prior to the administration of acetylcholine. Duration of bronchoprotection in the histamine-induced bronchoconstriction model reflects β2 adrenergic receptor agonist activity.
Groups of 6 male guinea pigs (Duncan-Hartley (HsdPoc:DH) Harlan, Madison, Wis.) weighing between 250 and 350 g were individually identified by cage cards. Throughout the study, animals were allowed access to food and water ad libitum.
Test compounds were administered via inhalation over 10 minutes in a whole-body exposure dosing chamber (R&S Molds, San Carlos, Calif.). […] This value was measured gravimetrically by comparing pre- and post-nebulization weights of the filled nebulizer.
The bronchoprotective effects of test compounds administered via inhalation were evaluated using whole body plethysmography at 1.5, 24, 48 and 72 hours post-dose. […]
Once it was determined that baseline values were within the range of 0.3-0.9 mL/cm H2O for compliance and within the range of 0.1-0.199 cm H2O/mL per second for resistance, the pulmonary evaluation was initiated. […]

β2 adrenergic receptor, sequence (P07550 whole entry): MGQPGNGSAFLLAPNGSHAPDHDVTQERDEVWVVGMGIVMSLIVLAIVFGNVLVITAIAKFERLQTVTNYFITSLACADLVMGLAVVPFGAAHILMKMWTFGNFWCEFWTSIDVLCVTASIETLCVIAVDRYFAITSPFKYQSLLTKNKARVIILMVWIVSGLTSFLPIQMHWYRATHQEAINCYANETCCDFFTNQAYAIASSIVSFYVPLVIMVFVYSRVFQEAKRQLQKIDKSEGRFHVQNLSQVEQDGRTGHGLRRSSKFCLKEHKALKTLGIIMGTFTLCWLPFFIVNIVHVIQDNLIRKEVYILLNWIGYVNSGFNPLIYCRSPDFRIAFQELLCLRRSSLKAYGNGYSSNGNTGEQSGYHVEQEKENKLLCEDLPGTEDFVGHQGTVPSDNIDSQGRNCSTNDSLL

Compound `COc1cc(NC(=O)CCN2CCC(OC(=O)Nc3ccccc3-c3ccccc3)CC2)c(Cl)cc1CNC[C@H](O)c1ccc(O)c2[nH]c(=O)ccc12` [compound of formula I, biphenyl-2-ylcarbamic acid 1-[2-(2-chloro-4-{[(R)-2-hydroxy-2-(8-hydroxy-2-oxo-1,2-dihydroquinolin-5-yl)ethylamino]methyl}-5-methoxyphenylcarbamoyl)ethyl]piperidin-4-yl ester] has a Ki [1] of under 10 nM, an EC50 [2] of under 10 nM and a Ki [3] of under 10 nM. For the same compound, the “duration (PD T1/2) of brochoprotective activity” value [4] was “at least 24 hours”.
